In patent publication US20090124651A1, “CATECHOLAMINE DERIVATIVES AND PRODRUGS THEREOF” (H. LUNDBECK A/S, priority 2007, published 2009):

Experiments:
[1] = man, oral dosing; cited from earlier work
Parkinson's disease = details: PD patients, intravenous (IV); cited from earlier work
motility deficits = test: Superiority model: mouse model of severe dopamine depletion; type: in vivo
Excerpt: Both Apomorphine and L-DOPA stimulate D1 and D2-like dopamine receptors.

CCCc1cc2c(s1)CN[C@@H]1CCc3cc(OC(C)=O)c(OC(C)=O)cc3[C@@H]21 [Adrogolide]
oral bioavailability [1]: ~4%
antiparkinson efficacy (Parkinson's disease): comparable to that of L-DOPA

CN1CCc2cccc3c2[C@H]1Cc1ccc(O)c(O)c1-3 [Apomorphine]
reversal of motility deficits / restoration of locomotion (motility deficits): able to reverse motility deficits

N[C@@H](Cc1ccc(O)c(O)c1)C(=O)O [L-DOPA, (levo)-3,4-dihydroxy phenylalanine]
reversal of motility deficits / restoration of locomotion (motility deficits): able to reverse motility deficits
